# Test results reported in patent publication US8415299B2, “Methods for improved avian performance” (priority 2004, dated 2013).
# Where two headings read alike, the source gives them in different places.
# Key:
# [1] = system: 96-week old Hy-Line W-36 White Leghorn hens
# Source text: Experiment 3. […] The photoperiod serves as the primary environmental signal that regulates reproductive function in many avian species. Increasing the photoperiod promotes maturation of the gonads and reproductive tract, whereas reducing the photoperiod causes the gonads and reproductive tract to regress and molting to occur.
# [2] = system: turkey hens; conditions: cited from earlier work
# [3] = system: 60-week old Hy-Line W-36 White Leghorn hens; conditions: for Feed Intake: day 22 to day 28
# Method: Experiment 1. […] The photoperiod was 17 hours of light per day (0330 hours to 2030 hours).
# [4] = 20 mg/kg feed, 8 hr L, Day 30-34
# [5] = 20 mg/kg feed, 8 hr L, Days 13-15
# [6] = 20 mg/kg feed, 8 hr L, Days 16-22
# [7] = 20 mg/kg feed, 17 hr L, Day 30-34
# [8] = 20 mg/kg feed, 17 hr L, Days 13-15
# [9] = 20 mg/kg feed, 17 hr L, Days 16-22
# [10] = 40 mg T4/kg test diet, Chamber 6 (17 hr light)
# [11] = 40 mg/kg feed, 8 hr L, Day 30-34
# [12] = 40 mg/kg feed, 8 hr L, Days 13-15
# [13] = 40 mg/kg feed, 8 hr L, Days 16-22
# [14] = 40 mg/kg feed, 17 hr L, Day 30-34
# [15] = 40 mg/kg feed, 17 hr L, Days 13-15
smiles,measurement,setting,value
"N[C@@H](Cc1cc(I)c(Oc2cc(I)c(O)c(I)c2)c(I)c1)C(=O)O [L-thyroxine, 3,5,3′,5′-tetraiodothyronine]",Time within which egg production was significantly reduced,"[1]; 20 mg T4/kg, Chamber 6 (17 hr light)",≤ 8 days
same,Hen-day egg production,"[1]; 20 mg/kg feed 12 d from day 13, 8 hr L, day 30",6.3%
same,Feed consumption (FC),[1]; [4],82.5 g/hen/d
same,Feed consumption change from days 1-12 (% FCC),[1]; [4],−32.0%
same,Feed consumption (FC),"[1]; 20 mg/kg feed, 8 hr L, Days 1-12 (pre-treatment)",121.3 g/hen/d
same,Feed consumption (FC),[1]; [5],41.8 g/hen/d
same,Feed consumption change from days 1-12 (% FCC),[1]; [5],−65.5%
same,Feed consumption (FC),[1]; [6],44.5 g/hen/d
same,Feed consumption change from days 1-12 (% FCC),[1]; [6],−63.3%
same,Feed consumption (FC),[1]; [7],135.0 g/hen/d
same,Feed consumption change from days 1-12 (% FCC),[1]; [7],11.1%
same,Feed consumption (FC),"[1]; 20 mg/kg feed, 17 hr L, Days 1-12 (pre-treatment)",121.5 g/hen/d
same,Feed consumption (FC),[1]; [8],58.0 g/hen/d
same,Feed consumption change from days 1-12 (% FCC),[1]; [8],−52.3%
same,Feed consumption (FC),[1]; [9],51.8 g/hen/d
same,Feed consumption change from days 1-12 (% FCC),[1]; [9],−57.4%
same,Hens that molted fully,"[1]; 40 mg T4/kg Group, Chamber 5 (8 hr light), 7/12",58%
same,Loss of initial body weight,[1]; [10],approximately 18%
same,Reduction of feed intake,[1]; [10],approximately 65%
same,Time within which egg production was significantly reduced,"[1]; 40 mg T4/kg, Chamber 6 (17 hr light)",≤ 6 days
same,Hens that molted fully,"[1]; 40 mg T4 kg Group, Chamber 6 (17 hr light)",100%
same,Hen-day egg production,"[1]; 40 mg/kg feed 12 d from day 13, 17 hr L, day 22",0.0%
same,Hen-day egg production,"[1]; 40 mg/kg feed 12 d from day 13, 17 hr L, day 24",0.0%
same,Hen-day egg production,"[1]; 40 mg/kg feed 12 d from day 13, 17 hr L, day 26",0.0%
same,Hen-day egg production,"[1]; 40 mg/kg feed 12 d from day 13, 17 hr L, day 28",0.0%
same,Hen-day egg production,"[1]; 40 mg/kg feed 12 d from day 13, 17 hr L, day 30",0.0%
same,Hen-day egg production,"[1]; 40 mg/kg feed 12 d from day 13, 17 hr L, day 32",0.0%
same,Hen-day egg production,"[1]; 40 mg/kg feed 12 d from day 13, 17 hr L, day 34",0.0%
same,Feed consumption (FC),[1]; [11],104.8 g/hen/d
same,Feed consumption change from days 1-12 (% FCC),[1]; [11],−9.5%
same,Feed consumption (FC),"[1]; 40 mg/kg feed, 8 hr L, Days 1-12 (pre-treatment)",115.8 g/hen/d
same,Feed consumption (FC),[1]; [12],36.8 g/hen/d
same,Feed consumption change from days 1-12 (% FCC),[1]; [12],−68.2%
same,Feed consumption (FC),[1]; [13],35.3 g/hen/d
same,Feed consumption change from days 1-12 (% FCC),[1]; [13],−69.5%
same,Feed consumption (FC),[1]; [14],93.3 g/hen/d
same,Feed consumption change from days 1-12 (% FCC),[1]; [14],−9.7%
same,Feed consumption (FC),"[1]; 40 mg/kg feed, 17 hr L, Days 1-12 (pre-treatment)",103.3 g/hen/d
same,Feed consumption (FC),[1]; [15],42.0 g/hen/d
same,Feed consumption change from days 1-12 (% FCC),[1]; [15],−59.3%
same,Feed consumption change from days 1-12 (% FCC),"[1]; 40 mg/kg feed, 17 hr L, Days 16-22",−63.7%
same,Mortality,"[1]; 20, 40 mg T4/kg feed 12 days",No mortality occurred in any of the Groups
same,Time within which egg production was significantly reduced,"[1]; 20 and 40 mg T4/kg, Chamber 5 (8 hr light)",≤ 4 days
same,Time out of egg production after treatment,[2]; 2 mg/hen/day i.m. (Lien and Siopes 1993),4 weeks
same,Egg laying,"[2]; 3 mcg/mL water (600 to 900 mcg/bird/day), 20 to 25 week old turkey females (Bilezikian et al. 1980)",rarely lay eggs
same,Effect on egg production,[3]; 250 μg T4 per kg body weight i.m. for 12 consecutive days,did not reduce egg production significantly
same,Day after start of T4 injection on which molting began in all cages,[3]; 500 μg T4 Group,11 days
same,Time after start of injecting at which egg production was significantly reduced,[3]; 500 μg T4 Group,4 days
same,Day after start of T4 injection on which molting began in all cages,"[3]; 1,000 μg T4 Group",9 days
same,Time after start of injecting at which egg production was significantly reduced,"[3]; 1,000 μg T4 Group",4 days
same,Mortality,"[3]; 1,000 μg T4 Group, 2 of 8 hens, died 9th and 10th day after start of injection",25%
same,Day after start of injection on which molting commenced in all cages,"[3]; 2,000 μg T4 Group",9 days
same,Time to rapid and complete cessation of egg production,"[3]; 2,000 μg T4 per kg body weight i.m. for 3 consecutive days",≤ 6 days
same,Day after start of injection on which molting commenced in all cages,"[3]; 4,000 μg T4 Group",9 days
same,Mortality,"[3]; 4000 μg T4 Group, 1 of 4 hens, died 8th day after start of injection",25%
same,Time to rapid and complete cessation of egg production,"[3]; 4,000 μg T4 per kg body weight i.m. for 3 consecutive days",≤ 4 days
same,End of Injections Body Weight,[3]; 250 mcg/kg BW i.m. 12 d,1300 g
same,Feed Intake,[3]; 250 mcg/kg BW i.m. 12 d,58.7 g/hen/day
same,Feed Intake,[3]; 500 mcg/kg BW i.m. 8 d,52.3 g/hen/day
same,Feed Intake,"[3]; 1,000 mcg/kg BW i.m. 8 d",31.4 g/hen/day
same,Feed Intake,"[3]; 2,000 mcg/kg BW i.m. 3 d",20.2 g/hen/day
same,Feed Intake,"[3]; 4,000 mcg/kg BW i.m. 3 d",11.7 g/hen/day
